Source: PubChem BioAssay AID602260 (Sanford-Burnham Center for Chemical Genomics, 2012)
Active and inactive are the calls of the source.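 How the source made its calls: active means mean IC50 at or below 20 µM; inactive means the rest.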

Target: Polyadenylate-binding protein 1 (Homo sapiens) (UniProt P11940)
Test: MLLE binding blockers, Cy5 peptide tracer – biochemical, fluorescence polarization, Cy5-PAM2 peptide, secondary, miRNA deadenylation inhibitor project, dose response (AID 602260)
Settings: GST-Mlle / Cy5-PAM2 peptide fluorescence polarization

Polyadenylate-binding protein 1 (Homo sapiens), sequence (P11940 whole entry, looked up): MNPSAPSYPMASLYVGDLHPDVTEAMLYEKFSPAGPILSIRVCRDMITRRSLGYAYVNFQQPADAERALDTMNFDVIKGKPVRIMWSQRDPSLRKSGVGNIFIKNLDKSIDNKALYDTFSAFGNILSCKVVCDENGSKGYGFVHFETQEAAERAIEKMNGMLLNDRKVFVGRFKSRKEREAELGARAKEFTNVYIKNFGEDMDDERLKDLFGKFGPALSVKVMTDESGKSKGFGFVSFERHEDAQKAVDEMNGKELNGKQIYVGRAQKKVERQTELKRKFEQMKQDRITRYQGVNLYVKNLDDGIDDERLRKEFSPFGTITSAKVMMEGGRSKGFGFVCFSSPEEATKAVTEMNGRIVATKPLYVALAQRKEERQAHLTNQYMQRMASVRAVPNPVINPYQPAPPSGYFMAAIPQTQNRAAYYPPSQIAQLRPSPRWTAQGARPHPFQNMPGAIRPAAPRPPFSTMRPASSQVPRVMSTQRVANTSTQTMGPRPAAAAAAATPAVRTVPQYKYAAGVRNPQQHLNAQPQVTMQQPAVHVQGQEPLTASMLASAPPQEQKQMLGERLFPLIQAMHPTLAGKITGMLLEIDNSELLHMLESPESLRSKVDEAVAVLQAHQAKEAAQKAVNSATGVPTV

Row | IC50 | SMILES
1 | inactive | CCOC(=O)c1c(/N=C/c2cccc([N+](=O)[O-])c2O)sc(C)c1C
2 | > 66 µM (inactive) | C[c-]1[c-](C)[c-](C)[c-](C)[c-]1C.[Fe].c1cc2nccc(N3CCCC3)[c-]2c1 (stereo not drawn)
3 | inactive | COc1ccc(NC(=O)Nc2ccc([N+](=O)[O-])cc2)cn1
